Source: US10828305B2 (SHANGHAI PHARMACEUTICALS HOLDING CO., LTD., priority 2016, dated 2020)

Experiments:
CYP2C8 = target: T1, CYP2C8 (Homo sapiens, UniProt P10632); test: Direct inhibition of CYP2C8, human liver microsome; assay type: in vitro ADME; conditions: probe paclitaxel, read-out: IC50 2C8 (Paclitaxel)
T1 construct: from tissue; host or cells: human liver microsomes
T1 sequence (P10632 1-490): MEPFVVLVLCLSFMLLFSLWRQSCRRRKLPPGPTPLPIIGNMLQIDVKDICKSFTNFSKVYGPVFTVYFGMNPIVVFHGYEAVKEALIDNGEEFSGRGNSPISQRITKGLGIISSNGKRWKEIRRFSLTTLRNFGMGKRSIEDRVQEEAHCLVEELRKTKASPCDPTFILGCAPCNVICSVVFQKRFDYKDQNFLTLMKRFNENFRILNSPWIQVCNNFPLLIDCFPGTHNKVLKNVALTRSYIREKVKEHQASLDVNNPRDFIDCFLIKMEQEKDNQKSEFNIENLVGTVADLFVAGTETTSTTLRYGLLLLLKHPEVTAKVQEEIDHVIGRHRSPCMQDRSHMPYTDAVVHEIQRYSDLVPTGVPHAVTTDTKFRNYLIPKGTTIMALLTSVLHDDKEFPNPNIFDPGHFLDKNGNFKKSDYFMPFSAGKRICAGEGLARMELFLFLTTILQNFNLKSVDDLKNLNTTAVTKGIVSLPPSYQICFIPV
Experimental: Research on Direct Inhibition of CYP2B6 and CYP2C8
100 μL human liver microsome (with final concentration of 0.2 mg/mL) was used for direct inhibition under warm incubation. The positive control system contained NADPH (with final concentration of 1 mmol/L), a mixture of positive inhibitors (ketoconazole 0.05 to 50 μmol/L, montelukast sodium 0.001 to 1 μmol/L), and a substrate mixture (with final concentration of amfepramone 50 μmol/L and paclitaxel 5 μmol/L), and the reaction was terminated after incubation for 20 min. The positive inhibitor was replaced with 0.1 to 100 μmol/L test compound in the test compound group. The reaction was terminated with acetonitrile containing […] internal standard tinidazole (1:3), vortexed for 10 min, centrifuged at 6000×g for 10 min, and 50 μL supernatant was taken and put into a 96-well plate for injection.
(§1) In this experiment, IC50 of inhibition of the compound on the enzyme was calculated by measuring relative production of the probe metabolite. The activity of CYP3A4 was simultaneously characterized by two probes of midazolam and testosterone.

CYP2C19 = target: T2, CYP2C19 (Homo sapiens, UniProt P33261); test: Direct inhibition of CYP2C19, human liver microsome; assay type: in vitro ADME; conditions: probe mephenytoin, read-out: IC50 2C19 (Mephenytoin)
T2 construct: from tissue; host or cells: human liver microsomes
T2 sequence (P33261 whole entry): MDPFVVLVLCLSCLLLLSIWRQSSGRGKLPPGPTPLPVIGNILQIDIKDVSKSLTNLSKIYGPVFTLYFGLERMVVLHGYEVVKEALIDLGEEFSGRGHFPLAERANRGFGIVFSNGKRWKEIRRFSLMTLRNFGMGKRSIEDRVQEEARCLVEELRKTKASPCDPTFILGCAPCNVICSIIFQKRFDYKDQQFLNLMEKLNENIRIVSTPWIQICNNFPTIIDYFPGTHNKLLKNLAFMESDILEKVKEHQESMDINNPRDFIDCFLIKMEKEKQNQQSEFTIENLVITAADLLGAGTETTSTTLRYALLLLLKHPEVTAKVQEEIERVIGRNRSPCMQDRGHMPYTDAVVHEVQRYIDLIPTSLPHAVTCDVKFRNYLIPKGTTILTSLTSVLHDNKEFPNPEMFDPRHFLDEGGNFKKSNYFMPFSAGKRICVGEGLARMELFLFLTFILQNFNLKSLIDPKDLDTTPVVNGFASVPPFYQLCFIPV
Experimental: (§2) Research on Direct Inhibition of CYP3A4, CYP2D6, CYP2C9, CYP2C19, CYP1A2
(§3) 100 μL human liver microsome (with final concentration of 0.2 mg/mL) was used for direct inhibition under warm incubation, the positive control system contained NADPH (with final concentration of 1 mmol/L), a mixture of positive inhibitors (ketoconazole 0.01 to 10 μmol/L, quinidine 0.01 to 10 μmol/L, sulfaphenazole 0.1 to 100 μmol/L, tranylcypromine 1 to 1000 μmot/L, α-naphthoflavone 0.01 to 10 μmol/L), and a substrate mixture (with final concentration of midazolam 10 μmol/L, testosterone 100 μmol/L, dextromethorphan 10 μmol/L, diclofenac 20 μmol/L, S-mephenytoin 50 μmol/L, phenacetin 100 μmol/L), and the reaction was terminated after incubation for 20 min. The positive inhibitor was replaced with 0.1 to 100 μmol/L test compound in the test compound group. The reaction was terminated with acetonitrile containing 0.11 μg/mL internal standard tinidazole (1:3), vortexed for 10 min, centrifuged at 6000×g for 10 min, 50 μL supernatant was taken and put into a 96-well plate for injection.
as §1

[1] = In vivo pharmacokinetics study in rats; conditions: male, SD, rat, plasma, po, iv 3 mg/kg, intragastric 6 mg/kg, read-out: Absolute bioavailability F
Experimental: In Vivo Pharmacokinetics Study in Rats and Mice
5 male SD rats, with weight of 180 to 220 g. The rats were fasted for 12 to 16 hours before the experiment, without restricting drinking water. Two rats were intravenously administrated with dosing solution (3 mL/kg, 1 mg/mL) at a dose of 3 mg/kg, 0.4 mL blood sample was taken from venous plexus of the fundus of the eye into a pre-heparinized centrifuge tube (sodium heparin solution 10 μL/tube) before administration and 2, 5, 15, 30, 60, 90, 120, 240, 360, 480, 720, 1440 min after administration, respectively. Three rats were intragastricly administrated with dosing suspension (8 mL/kg, 0.75 mg/mL) at a dose of 6 mg/kg, 0.4 mL blood sample was taken from venous plexus of the fundus of the eye into a pre-heparinized centrifuge tube (sodium heparin solution 10 μL/tube) before administration and 5, 15, 30, 60, 90, 120, 240, 360, 480, 720, and 1440 min after administration, respectively. […]
Taking 50 μL plasma sample of rat or mouse, adding […] acetonitrile containing internal standard (propranolol, 2.5 ng/ml) to precipitate protein. Vortexing for 10 min, centrifuging at 6000 g for 10 min, the supernatant was taken and diluted with mobile phase in a 96-well plate, the drug concentration in plasma was measured by UPLC/MS-MS. […]

CYP1A2 = target: T3, CYP1A2 (Homo sapiens, UniProt P05177); test: Direct inhibition of CYP1A2, human liver microsome; assay type: in vitro ADME; conditions: probe phenacetin, read-out: IC50 1A2 (Phenacetin)
T3 construct: from tissue; host or cells: human liver microsomes
T3 sequence (P05177 1-516): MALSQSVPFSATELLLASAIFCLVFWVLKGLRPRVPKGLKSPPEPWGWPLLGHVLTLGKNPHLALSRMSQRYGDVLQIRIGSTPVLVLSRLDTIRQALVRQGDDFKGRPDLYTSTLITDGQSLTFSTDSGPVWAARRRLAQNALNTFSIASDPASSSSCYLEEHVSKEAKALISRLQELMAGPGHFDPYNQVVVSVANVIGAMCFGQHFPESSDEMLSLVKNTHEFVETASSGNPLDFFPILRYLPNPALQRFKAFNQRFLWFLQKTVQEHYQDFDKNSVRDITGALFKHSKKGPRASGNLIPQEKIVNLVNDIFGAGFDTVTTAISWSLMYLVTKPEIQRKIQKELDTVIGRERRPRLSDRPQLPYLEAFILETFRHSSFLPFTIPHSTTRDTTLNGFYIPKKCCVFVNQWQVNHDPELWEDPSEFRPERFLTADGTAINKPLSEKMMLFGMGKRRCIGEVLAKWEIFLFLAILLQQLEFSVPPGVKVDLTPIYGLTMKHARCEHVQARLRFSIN
Experimental: as §2, §3, §1

Row | Structure (SMILES) | IC50 (CYP2C8) [µM] | IC50 (CYP2C19) [µM] | bioavailability [1] [%] | IC50 (CYP1A2) [µM]
1 | Cc1cc(Nc2ncnc3ccc(NC4=NC(C)(C)CO4)cc23)ccc1Oc1ccn2ncnc2c1 [ARRY-380, reference compound] | 3 | 35 | 9.5 | 94
2 | Cc1cc(Nc2ncnc3ccc(NC4=NC(C)(C)CO4)cc23)ccc1Oc1cc2nncn2cn1 [Embodiment 4, N^4-(4-([1,2,4]triazolo[4,3-c]pyrimidin-7-yloxy)-3-methylphenyl)-N^6-(4,4-dimethyl-4,5-dihydrooxazol-2-yl)quinazoline-4,6-diamine] | 15 | 53 | 15.4 | 34
